Experimental data as given in ChEMBL document CHEMBL3817726, “Chemically Diverse Group I p21-Activated Kinase (PAK) Inhibitors Impart Acute Cardiovascular Toxicity with a Narrow Therapeutic Window” (J Med Chem, 2016).
In brackets after ≈: the same amount, converted by molar mass.

Legend:
[1] = Lipophilicity, log D of the compound at pH 7.4; type: physicochemical; conditions: buffer
[2] = molecular target: Serine/threonine-protein kinase PAK 1/PAK 2 (Homo sapiens, UniProt Q13177+Q13153); assay: Inhibition of PAK1/2 in human EBC1 cells assessed as phosphorylation of MEK1 at serine 298 after 2 hrs by HTRF assay; type: cell-based
Homo sapiens [3] = organism: Homo sapiens; assay: Selectivity for human recombinant N-terminal 6-His-tagged PAK1 kinase domain (249 to 545 residues) over LCK (unknown origin)
[4] = Kinetic solubility of the compound at pH 7.4; type: physicochemical; conditions: buffer, read-out: Kinetic_solubility
[5] = Efflux ratio of permeability across basolateral to apical side over apical to basolateral side in MDCK cells at 10 uM after 60 mins; type: ADME, cell-based, Canis lupus familiaris; conditions: dog
[6] = molecular target: Serine/threonine-protein kinase PAK 1 (Homo sapiens, UniProt Q13153); assay: Inhibition of human recombinant N-terminal 6-His-tagged PAK1 kinase domain (249 to 545 residues) expressed in Escherichia coli BL21(DE3) assessed as phosphorylation of coumarin labeled FRET peptide substrate at Ser/Thr19 preincubated for 10 mins followed by ATP addition measured after 60 mins by Z'-LYTE assay
[7] = Apparent permeability across apical to basolateral side in MDCK cells at 10 uM after 60 mins; type: ADME, cell-based, Canis lupus familiaris; conditions: dog
Homo sapiens [8] = organism: Homo sapiens; assay: Selectivity for human recombinant N-terminal 6-His-tagged PAK1 kinase domain (249 to 545 residues) over human recombinant PAK4 kinase domain
[9] = Apparent permeability across basolateral to apical side in MDCK cells at 10 uM after 60 mins; type: ADME, cell-based, Canis lupus familiaris; conditions: dog

Serine/threonine-protein kinase PAK 1, sequence (Q13153 whole entry, the tested form may be a part): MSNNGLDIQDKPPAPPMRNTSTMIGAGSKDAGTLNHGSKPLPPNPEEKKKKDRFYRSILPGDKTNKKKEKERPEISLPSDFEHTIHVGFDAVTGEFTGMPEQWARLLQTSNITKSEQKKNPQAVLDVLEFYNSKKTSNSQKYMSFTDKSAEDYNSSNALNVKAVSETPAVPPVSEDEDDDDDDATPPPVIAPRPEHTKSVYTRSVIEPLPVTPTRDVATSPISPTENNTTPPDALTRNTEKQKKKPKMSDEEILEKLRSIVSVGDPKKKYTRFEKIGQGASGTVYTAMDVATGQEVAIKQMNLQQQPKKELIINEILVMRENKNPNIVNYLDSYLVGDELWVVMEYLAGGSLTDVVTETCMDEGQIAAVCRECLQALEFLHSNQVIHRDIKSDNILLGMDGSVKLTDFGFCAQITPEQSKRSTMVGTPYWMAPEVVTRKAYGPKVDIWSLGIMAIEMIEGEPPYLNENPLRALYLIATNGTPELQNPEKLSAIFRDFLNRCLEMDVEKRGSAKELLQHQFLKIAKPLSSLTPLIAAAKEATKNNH

Row | Compound | logD [1] | IC50 [2] [µM] | Selectivity ratio (Homo sapiens [3]) | solubility kinetic [4] [µM] | efflux ratio at 1 h, 10 µM [5] | Ki [6] [µM] | Papp A→B at 1 h, 10 µM [7] [×10⁻⁶ cm/s] | Selectivity ratio (Homo sapiens [8]) | Papp B→A at 1 h, 10 µM [9] [×10⁻⁶ cm/s]
1 | CNc1ncc2cc(-c3ccc(-n4cccc(C)c4=O)cc3Cl)c(=O)n(CCOC)c2n1 | 2.2 | 0.45 | 38 | 80 (≈ 36.2 µg/mL) | 0.5 | 0.013 | 27 | – | –
2 | CNc1ncc2cc(-c3ccc(-n4cccc(C)c4=O)cc3Cl)c(=O)n(CCOC3CN(C)C3)c2n1 | 0.63 | 0.088 | 86 | 71 (≈ 36 µg/mL) | 26 | 0.0044 | 0.2 | – | –
3 | CNc1ncc2cc(-c3ccc(-n4ccn(C)c4=O)cc3Cl)c(=O)n(CCCN)c2n1 | – | – | 76 | – | – | 0.013 | – | > 232 | –
4 | CNc1ncc2cc(-c3ccc(-n4ccccc4=O)cc3Cl)c(=O)n(CCCN)c2n1 | – | – | 86 | – | – | 0.036 | – | > 82 | –
5 | CNc1ncc2cc(-c3ccc(-c4cccc(C)n4)cc3Cl)c(=O)n(CCCN)c2n1 | – | – | 53 | – | – | 0.0033 | – | 449 | –
6 | CNc1ncc2cc(-c3ccc(-n4cccc(C)c4=O)cc3Cl)c(=O)n(CCCN)c2n1 | 0.05 | 0.602 | 221 | 82 (≈ 37 µg/mL) | 4.3 | 0.0035 | 0.1 | 517 | 0.33
7 | CNc1ncc2cc(-c3ccc(N4CCCC4=O)cc3Cl)c(=O)n(CCCN)c2n1 | – | – | 25 | – | – | 0.089 | – | > 33 | –
8 | CNc1ncc2cc(-c3ccc(-n4cccc(C)c4=O)cc3Cl)c(=O)n(CC(F)(F)CN)c2n1 | 1.8 | 0.46 | 56 | 51 (≈ 24.8 µg/mL) | 1.8 | 0.009 | 8.4 | – | 15.4
9 | CNc1ncc2cc(-c3ccccc3Cl)c(=O)n(CCCN)c2n1 | – | – | 0.4 | – | – | 0.382 | – | > 7.6 | –
